The values below come from patent US11458153B2, “Drug delivery composition comprising a self-assembled gelator” (The Brigham and Women's Hospital, Inc., priority 2008, dated 2022).

Data set [1] in a line: Gelation studies with Apn-based prodrug gelators in water and organic solvents. More on the design: key to Gelation ability: G = gel; P = precipitate; S = soluble; I = insoluble. Format: physicochemical. An excerpt:
Gelation Studies with Prodrug-Based Gelators. Gelation abilities of Apn based amphiphilic prodrugs have been investigated thoroughly in a wide range of solvents. For detailed gelation results, see Table 1, below). Typically, the required amount of gelator was placed in a glass vial and with an appropriate solvent. […] The resulting solution was slowly cooled to room temperature and gelation was visually observed. […] Despite of prolonged heating Apn-11-CH3 was not soluble in water. […] In addition, Apn-7-COOH is soluble in basic solutions (pH is more than 8).
All gels were opaque in nature and stable for several weeks.
Preparation of Gels. Typically, gelator (0.1-5 mg) and required solvent (0.1-1 mL) were placed into a 2 mL scintillation vial, which was then sealed with a screw cap. The vial was heated with shaking until the solid was completely dissolved.

Data set [2] deals with mesenchymal stem cells (MSCs). In words: MSC viability, trypan blue exclusion. The format is cell-based, human. As to the method:
Cytocompatibility. The cytocompatibility of prodrugs generated from small modification of known drugs was investigated. […] To test the cyto compatibility of prodrug-based amphiphiles and bolaamphiphiles, and their effect on cell characteristics such as viability, proliferation, adhesion and cell phenotype, a series of experiments was performed with mesenchymal stem cells (MSCs). To gain more insight into the effect of modification, unmodified drug Apn was used as a control. The viability of control cells and cells treated with Apn, Apn-7-COOH and Apn-8-Apn was examined with trypan blue assay. Use of Mesenchymal stem cells is appropriate given that these systems may be used for localized release likely into connective tissues.
Mesenchymal Stem Cell Culture. Primary human mesenchymal stem cells were maintained in expansion media that consisted of 15% Fetal Bovine Serum (selected for its ability to expand MSCs), 1% (v/v) L-Glutamine, 1% (v/v) Penn-Strep, and α-MEM. All experiments were performed using MSCs at passage number 4-6.
Viability, Adhesion and Proliferation Characteristics. The viability of the cells was examined using trypan blue exclusion. […] The media was then aspirated and the cells were detached with 200 μL of cell dissociated solution (similar quantities of floating cells were observed between the groups, typically 5-10 per well). 300 μL of media was added and the total 500 μL of the cell dispersion was collected in an eppendorf tubes. From this 10 μL of cell dispersion was diluted to 1:1 with 4% trypan blue solution and cells were counted in a hemocytometer to determine the number viable (non-blue) and nonviable (blue) cells. A control for this experiment included cells treated with only phosphate buffer saline (PBS) without an amphiphile. Cell adhesion was quantified by measuring the number of adherent cells on tissue culture surfaces in 96 well plates after incubating with amphiphiles for 12 hours. For proliferation studies, 5000 cells were added to each well of a 96 well plate in 200 μL of MSC cell expansion media, and appropriate amphiphiles were then added and incubated at 37° C. and 5% CO2. Proliferation was quantified by manually tabulating the number of cells within the flask at multiple time points (1, 2, 3, 4, 6 and 8 days) with light microscopy at 10×.

Regarding `CC(=O)Nc1ccc(OC(=O)CCCCCCC(=O)O)cc1` [Apn-7-COOH], in data set [1] (pH is more than 8), the “solubility in basic solutions” value is “soluble”. The Gelation ability result in data set [1] (solvent chloroform) is on record as “S”; in data set [1] (solvent ethanol) it was “S”; in data set [1] (solvent ethyl acetate), “I”; in data set [1] (solvent isopropanol), “I”; in data set [1] (solvent methanol), “S”; in data set [1] (solvent t-butanol) it was “I”. For the same compound, the Gelation ability entry in data set [1] (solvent water) is recorded as “G”. The minimum gelation concentration in data set [1] (solvent water) is 0.4 wt/v %. Further, the “gelation in water (in words)” value in data set [1] (water / aqueous solutions) is given as “forms excellent gels”. Besides, the viable cells in data set [2] (250 μM, 48 hours incubation) is on record as 87%. For the same compound, the “viability rates over concentration range” value in data set [2] (up to 500 μM, 48 hours) is “not significantly affected”.
